Assay results from patent US9273043B2, “TRPV1 antagonists including dihydroxy substituent and uses thereof” (Purdue Pharma L.P., priority 2011, dated 2016).
In brackets after ≈: the same amount, converted by molar mass. Read-outs that look alike come from different tables or passages of the source.

Assays:
[1] = Aqueous solubility at pH 1.2 and pH 6.8; format: physicochemical; conditions: aqueous solution
[2] = target: T1, human TRPV1 (Homo sapiens (Human), UniProt Q8NER1); experiment: Capsaicin-based assay, Protocol 2, TRPV1/CHO cells (hCAP-CHO), Fluo-4 FLIPR; format: cell-based; conditions: 100 nM capsaicin, mean ± SEM
Text: The TRPV1/CHO cell line was generated as described below. […] The resulting PCR products were purified from agarose gels using Gel Band Purification Kit (GE Healthcare Bioscience) and were subcloned into pCR-Blunt vector (Invitrogen). The cloned cDNA was fully sequenced using a fluorescent dye-terminator reagent (BigDye Terminator ver3.1 Cycle Sequencing Kit, Applied Biosystems) and ABI Prism 3100 genetic analyzer (Applied Biosystems). The pCR-Blunt vector containing the hTRPV1 cDNA was subjected to restriction digestion with EcoR1. The restriction fragment was subcloned into expression vector pcDNA3.1(-) (Invitrogen) and named pcDNA3.1(-)-hVR1 plasmid. The sequence of the cDNA encoding TRPV1 is available at GenBank accession number AJ277028. […] The cells were transfected with the pcDNA3.1(-)-hVR1 plasmid using FuGENE6 (Roche) according to the manufacturer's protocol. 24 hr after transfection, neomycin-resistant cells were selected using 1 mg/mL G418 (Nacalai Tesque). […] The cells expressing hTRPV1 were cultured in the growth medium supplemented with 1 mg/mL G418. […] Capsaicin-based Assay: […] Subsequently, the cells were loaded by incubation in 0.1 mL of wash buffer containing Fluo-4 at 3 μM final concentration. After 1 hour, the cells were washed twice with 0.2 mL wash buffer and resuspended in 0.1 mL wash buffer. The plates were then transferred to a Fluorescence Imaging Plate Reader (Molecular Devices). Fluorescence intensity was monitored for 15 seconds to establish a baseline. […] The final concentration of the compound was adjusted to range from 100 μM to 1.5625 μM. […] Data were collected over the entire time course and analyzed using Excel and the curve-fitting formula GraphPad Prism.

[3] = In vivo assay of body temperature increase (rectal body temperature); design: species or system rat; conditions: rats, oral, 10 mL/kg of 1 mg/mL in 0.5% methylcellulose; greatest ΔTb versus vehicle control at 0.5, 1 or 2 hrs
Text: Hyperthermia or undesirable elevation in animal body temperature is known to be an undesirable side-effect accompanying the administration of certain TRPV1 antagonists (Gavva, “Body-temperature maintenance as the predominant function of the vanilloid receptor TRPV1,” Trends Pharmacol. Sci. 29(11):550-557 (2008)).
Test Animals: Selection of rats (Crl/SD rats, 7 weeks, male) was based on rectal body temperature measured during the morning of the day of dosing as described below. In addition, to minimize spontaneous, stress-induced increases in body temperature, rats were acclimated in advance to both the rectal measurement procedure and to being handled and dosed. All lodging and testing took place in animal care laboratories with constant room temperature and humidity. The rats were free to move and ingest food and water throughout. Each rat was coded with a colored line on the tail, housed in a separate cage, and permitted the normal range of movement. Immediately before each body temperature measurement, a rat was transferred to a measurement cage. To reduce stress which could influence its body temperature, each rat was covered with towels during the measurement. A thermistor probe was then carefully inserted into the rectum of each rat and left in place until the temperature reading on the digital display had stabilized; this value was recorded.
Assay: On the day before dosing, rectal body temperature was measured at 9:00, 10:00, 11:00, 12:30, 13:30, 14:30, and 15:30 o'clock to familiarize the rats with the measurement procedure prior to administration of the test or control treatments. The rats were also dosed by oral gavage without vehicle at 12:30 o'clock to acclimate and familiarize them with the handling and dosing procedure.
On the day of dosing, only rats with rectal body temperatures within the range of from 37.0° C. to 37.7° C. were selected for study. Rectal body temperatures were measured at 9:00, 10:00, and 11:00 o'clock. Rats were excluded from the study if either their rectal body temperature was over 37.9° C. at 10:00 o'clock or was outside the range of from 37.0° C. to 37.7° C. at 11:00 o'clock. The selected rats were divided into several groups based on their rectal body temperatures at 11:00 o'clock. Rectal body temperatures of the selected rats were measured again at 12:30 o'clock and any rat with a rectal body temperature of 38.0° C. or greater was also excluded from the study.
Following assignment to either a test or control group, a test compound or a control was administered to the rats. Each test compound was dissolved in a vehicle of 0.5% aqueous methylcellulose solution and the final concentration of the test compound was adjusted to 1 mg/mL. Each test compound was orally administered once at a dose of 10 mL/kg. The same volume of the control (vehicle only) was administered once to the control group. Rectal body temperatures were measured at the following time points: 0.5, 1, and 2 hrs after administration.
The body temperature increase (ΔTb) for each test compound was calculated by subtracting, at each time point, the average temperature of the control group from the average temperature of the group administered that test compound. The greatest ΔTb obtained for each test compound at any of the time points is shown in Table 11 below, along with the ΔTb of the control.

[4] = target: T1, human TRPV1; experiment: pH-based assay, Protocol 2, TRPV1/CHO cells (hpH-CHO), Fura-2 Ca2+ influx; format: cell-based; conditions: pH 5.0-5.1 (H2SO4), mean ± SEM
Experimental: For Protocol 2, a Chinese Hamster Ovary cell line (CHO) that has been engineered to constitutively express human recombinant TRPV1 was used (TRPV1/CHO cells). The TRPV1/CHO cell line was generated as described below.
TRPV1/CHO cells were seeded in the 96-well clear-bottom black-wall plate (Nunc) at densities of 1-2×10^4 cells/well and grown in 100 μL of culture medium (alpha-MEM supplemented with 10% FBS, 20 mM HEPES, 1 mg/mL geneticin and 1% antibiotic-antimycotic mixed stock solution) for 1-2 days before the experiment.
(1) Culture medium was removed using an 8-channel-pipette (Rainin, USA) from the 96-well plate and the wells were refilled with 100 μL of loading buffer (20 mM HEPES, 115 mM NaCl, 5.4 mM KCl, 0.8 mM MgCl2, 1.8 mM CaCl2, 13.8 mM D-glucose, 2.5 mM probenecid, pH 7.4) containing 5 μM Fura-2 AM (Dojin, Japan).
(2) The 96-well plate was incubated at 37° C. for 45 min.
(3) The loading buffer was removed from each well. The cells were subsequently washed twice with 150 μL of measuring buffer (20 mM HEPES, 115 mM NaCl, 5.4 mM KCl, 0.8 mM MgCl2, 5.0 mM CaCl2, 13.8 mM D-glucose, 0.1% BSA, pH 7.4) (no probenecid). The wells were then refilled with 80 μL of measuring buffer.
(4) After an incubation at 4° C. for 15 min, the 96-well plate was transferred to a model FDSS-3000 plate reader apparatus (Hamamatsu Photonics K.K., Japan).
(5) The Fura-2 fluorescent intensity was monitored at a wavelength of 340 nm and at 380 nm, respectively, at a rate of 0.5 Hz for a total of 240 seconds. After 16 time points (32 sec) of baseline detection, 20 μL of agonist solution was added to each well. The final volume was 100 μL/well.
(6) Fluorescence intensity ratio refers to the fluorescence intensity at 340 nm over the fluorescence intensity at 380 nm at a particular time point. The baseline was set as the average of the fluorescent intensity ratios for the first 16 time points before the addition of agonist solution. The maximum response was the highest fluorescent intensity ratio during the 60 time points following addition of agonist solution.
(7) Maximal signal ratios from each well were calculated as output data using the FDSS-3000 analysis program. Data were analyzed using Excel (Microsoft) and XLfit (idbs) software.
In an “agonist plate,” two different agonist solutions with different H2SO4 concentrations were used for the pH assay (see, e.g., FIG. 3A of U.S. Patent Application Publication No. US 2009/0170868 A1). For the first half of a 96-well plate one agonist solution was used; for the second half the other agonist solution was used. The agonist solutions were obtained by diluting sulfuric acid (1M H2SO4) with measuring buffer. The concentrations for the two agonist solutions were determined as described above in Section 2 of Protocol 2.
The sulfuric acid concentrations between the two agonist solutions differed by 0.5 mM. In the experiment described in Section 2 of Protocol 2, the sulfuric acid concentrations in the agonist solutions were determined to be 16 mM and 16.5 mM, respectively. After 1:4 dilution of the agonist solutions, the final sulfuric acid concentration was 3.2 mM and 3.3 mM, respectively. The resulting pH value for the pH assay was 5.0 to 5.1.
Test compounds were dissolved in DMSO to yield 1 mM stock solutions. The stock solutions were further diluted using DMSO in […] serial dilution steps with 6 points (1000, 250, 62.5, 15.625, 3.9062, and 0.977 μM). The thereby-obtained solutions were further diluted in measuring buffer (1:100) as 10× stock serial dilutions with a DMSO concentration of 1%. 10 μL of a 10× stock was added into each well of an “antagonist plate” (see step 3.3.(4) below). Thus, the final concentrations of antagonists was as follows: 0.977, 3.906, 15.63, 62.5, 250, and 1000 nM containing 0.1% DMSO (see, e.g., FIG. 3B of U.S. Patent Application Publication No. US 2009/0170868 A1).
Steps (1) and (2) of this Assay were the same as steps 2.2.(1) and 2.2.(2), respectively, of Protocol 2. […]

[5] = pH 1.2, simulated gastric fluid, read-out: aqueous solubility at pH 1.2
[6] = pH 6.8, aqueous buffer, read-out: aqueous solubility at pH 6.8

T1 sequence (Q8NER1 whole entry, looked up, the tested form may be a part): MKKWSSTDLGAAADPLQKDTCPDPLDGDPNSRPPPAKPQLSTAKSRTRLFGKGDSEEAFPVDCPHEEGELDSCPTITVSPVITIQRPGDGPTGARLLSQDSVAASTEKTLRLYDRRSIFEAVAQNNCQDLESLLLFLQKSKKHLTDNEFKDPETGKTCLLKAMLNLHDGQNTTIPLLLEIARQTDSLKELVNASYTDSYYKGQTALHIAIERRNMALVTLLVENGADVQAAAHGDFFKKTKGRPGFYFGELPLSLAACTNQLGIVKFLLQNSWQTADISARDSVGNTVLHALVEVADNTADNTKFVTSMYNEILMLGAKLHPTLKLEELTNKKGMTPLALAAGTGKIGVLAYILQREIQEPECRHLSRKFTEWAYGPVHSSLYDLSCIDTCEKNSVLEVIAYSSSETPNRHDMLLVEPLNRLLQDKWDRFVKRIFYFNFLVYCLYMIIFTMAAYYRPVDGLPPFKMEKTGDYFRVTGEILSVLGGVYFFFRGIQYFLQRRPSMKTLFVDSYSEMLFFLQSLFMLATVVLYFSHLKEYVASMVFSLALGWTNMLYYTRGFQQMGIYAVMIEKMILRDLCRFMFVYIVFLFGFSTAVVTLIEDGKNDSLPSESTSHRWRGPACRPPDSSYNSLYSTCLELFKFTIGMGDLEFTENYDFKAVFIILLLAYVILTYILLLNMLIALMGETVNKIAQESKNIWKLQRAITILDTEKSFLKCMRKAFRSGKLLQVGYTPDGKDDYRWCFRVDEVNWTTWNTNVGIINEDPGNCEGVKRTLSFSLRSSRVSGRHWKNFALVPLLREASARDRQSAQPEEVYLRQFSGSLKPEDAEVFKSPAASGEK

Row | SMILES | solubility [1, 5] [µM] | solubility [1, 6] [µM] | IC50 [2] [nM] | ΔTb, body temperature increase [3] [°C] | IC50 [4] [nM]
1 | C[C@H]1CN(c2ncc([C@@H](O)CO)cc2F)CCN1C(=O)Nc1nc2cc(F)ccc2s1 [A155(d), (S)-4-{5-[(R)-1,2-dihydroxyethyl]-3-fluoropyridin-2-yl}-N-(5-fluorobenzo[d]thiazol-2-yl)-2-methylpiperazine-1-carboxamide] | > 50 | 4 (≈ 1.8 µg/mL) | 168 ± 42 | 0.1 | 
2 | C[C@H](O)[C@@H](O)c1cnc(N2CCN(C(=O)Nc3nc4ccccc4s3)C[C@H]2C)c(F)c1 [B122(j), (R)—N-(benzo[d]thiazol-2-yl)-4-{5-[(1S,2S)-1,2-dihydroxypropyl]-3-fluoropyridin-2-yl}-3-methylpiperazine-1-carboxamide] |  |  | 586 ± 78 |  | 1720
3 | C[C@H](O)[C@@H](O)c1cnc(N2CCN(C(=O)Nc3nc4cc(F)ccc4s3)[C@@H](C)C2)c(F)c1 [B155(h), (S)-4-{5-[(1S,2S)-1,2-dihydroxypropyl]-3-fluoropyridin-2-yl}-N-(5-fluorobenzo[d]thiazol-2-yl)-2-methylpiperazine-1-carboxamide] |  |  | 107 ± 20 |  | 
4 | C[C@@H]1CN(C(=O)Nc2nc3ccccc3s2)CCN1c1ncc([C@@H](O)[C@@H](C)O)cc1F [B122(o), (R)—N-(benzo[d]thiazol-2-yl)-4-{5-[(1R,2R)-1,2-dihydroxypropyl]-3-fluoropyridin-2-yl}-3-methylpiperazine-1-carboxamide] |  |  | 199 ± 38 |  | 6880
5 | C[C@H](O)[C@@H](O)c1cnc(N2CCN(C(=O)Nc3nc4cc(F)ccc4s3)C[C@H]2C)c(F)c1 [B155(j), (R)-4-{5-[(1S,2S)-1,2-dihydroxypropyl]-3-fluoropyridin-2-yl}-N-(5-fluorobenzo[d]thiazol-2-yl)-3-methylpiperazine-1-carboxamide] |  |  | 344 ± 116 |  | 439 ± 71
6 | C[C@@H]1CN(C(=O)Nc2nc3ccc(F)cc3s2)CCN1c1ncc([C@@H](O)[C@@H](C)O)cc1F [B125(o), (R)-4-{5-[(1R,2R)-1,2-dihydroxypropyl]-3-fluoropyridin-2-yl}-N-(6-fluorobenzo[d]thiazol-2-yl)-3-methylpiperazine-1-carboxamide] |  |  | 309 ± 105 |  | 398 ± 152
7 | C[C@@H]1CN(c2ncc([C@@H](O)CO)cc2F)CCN1C(=O)Nc1nc2cc(F)ccc2s1 [A155(e), (R)-4-{5-[(R)-1,2-dihydroxyethyl]-3-fluoropyridin-2-yl}-N-(5-fluorobenzo[d]thiazol-2-yl)-2-methylpiperazine-1-carboxamide] | > 50 | 5 (≈ 2.25 µg/mL) | 16.5 ± 4.2 | 0.1 | 
8 | C[C@H](O)[C@@H](O)c1cnc(N2CCN(C(=O)Nc3nc4ccccc4s3)C[C@@H]2C)c(F)c1 [B122(k), (S)—N-(benzo[d]thiazol-2-yl)-4-{5-[(1S,2S)-1,2-dihydroxypropyl]-3-fluoropyridin-2-yl}-3-methylpiperazine-1-carboxamide] |  |  | 502 ± 128 |  | 2040 ± 245
9 | C[C@H]1CN(C(=O)Nc2nc3ccccc3s2)CCN1c1ncc([C@H](O)CO)cc1F [A122(c), (S)—N-(benzo[d]thiazol-2-yl)-4-{5-[(S)-1,2-dihydroxyethyl]-3-fluoropyridin-2-yl}-3-methylpiperazine-1-carboxamide] |  |  | 178 ± 29 |  | 553 ± 12
10 | C[C@@H]1CN(C(=O)Nc2nc3cc(F)ccc3s2)CCN1c1ncc([C@@H](O)[C@@H](C)O)cc1F [B155(o), (R)-4-{5-[(1R,2R)-1,2-dihydroxypropyl]-3-fluoropyridin-2-yl}-N-(5-fluorobenzo[d]thiazol-2-yl)-3-methylpiperazine-1-carboxamide] |  |  | 249 ± 34 |  | 1230 ± 595
